Results on 31 compounds are retold here after patent US12630535B2, “Inhibitors of ACK1/TNK2 tyrosine kinase” (H. LEE MOFFITT CANCER CENTER AND RESEARCH INSTITUTE, INC., priority 2020, dated 2026).

Data set [1] has as its target T1, ACK1 (Homo sapiens, UniProt Q07912). The data set can be described thus: ACK1 IC50 (Table 1). Type of data set: biochemical.
In data set [2] the target is T1, ACK1. The data set can be described thus: Reaction Biology 33P Hotspot assay. Type of data set: biochemical.
Data set [3] deals with T1, ACK1. The data set can be described thus: ACK1 ELISA. The class given is biochemical. The following applies: read-out: ACK1 ELISA % Inhibition at 100 nM.
Data set [4] relates to A549 lung cancer cell. The note with it: 10 μM; cited from earlier work.
Data set [5] concerns ACK1 autophosphorylation (Tyr284). The following applies: HEK293 cells, 2 μM; cited from earlier work.
The test system of data set [6] is AKT Tyr176 phosphorylation. The following applies: pancreatic cancer cells; cited from earlier work.
In data set [7] the test system is AR Tyr267 phosphorylation. The following applies: cited from earlier work.
In data set [8] the test system is castration and radioresistant prostate xenograft tumor. The following applies: cited from earlier work.
In data set [9] the test system is ACK1 in NCI-H1703 human non-small cell lung cancer cells. The following applies: read-out: IC50 for ACK1 inhibition in NCI-H1703 cells (ELISA); cited from earlier work. Background: In an ELISA, binding on a coated surface is turned into a signal by an enzyme label.
The conditions of data set [10]: mouse models; cited from earlier work.

T1 sequence (Q07912 whole entry): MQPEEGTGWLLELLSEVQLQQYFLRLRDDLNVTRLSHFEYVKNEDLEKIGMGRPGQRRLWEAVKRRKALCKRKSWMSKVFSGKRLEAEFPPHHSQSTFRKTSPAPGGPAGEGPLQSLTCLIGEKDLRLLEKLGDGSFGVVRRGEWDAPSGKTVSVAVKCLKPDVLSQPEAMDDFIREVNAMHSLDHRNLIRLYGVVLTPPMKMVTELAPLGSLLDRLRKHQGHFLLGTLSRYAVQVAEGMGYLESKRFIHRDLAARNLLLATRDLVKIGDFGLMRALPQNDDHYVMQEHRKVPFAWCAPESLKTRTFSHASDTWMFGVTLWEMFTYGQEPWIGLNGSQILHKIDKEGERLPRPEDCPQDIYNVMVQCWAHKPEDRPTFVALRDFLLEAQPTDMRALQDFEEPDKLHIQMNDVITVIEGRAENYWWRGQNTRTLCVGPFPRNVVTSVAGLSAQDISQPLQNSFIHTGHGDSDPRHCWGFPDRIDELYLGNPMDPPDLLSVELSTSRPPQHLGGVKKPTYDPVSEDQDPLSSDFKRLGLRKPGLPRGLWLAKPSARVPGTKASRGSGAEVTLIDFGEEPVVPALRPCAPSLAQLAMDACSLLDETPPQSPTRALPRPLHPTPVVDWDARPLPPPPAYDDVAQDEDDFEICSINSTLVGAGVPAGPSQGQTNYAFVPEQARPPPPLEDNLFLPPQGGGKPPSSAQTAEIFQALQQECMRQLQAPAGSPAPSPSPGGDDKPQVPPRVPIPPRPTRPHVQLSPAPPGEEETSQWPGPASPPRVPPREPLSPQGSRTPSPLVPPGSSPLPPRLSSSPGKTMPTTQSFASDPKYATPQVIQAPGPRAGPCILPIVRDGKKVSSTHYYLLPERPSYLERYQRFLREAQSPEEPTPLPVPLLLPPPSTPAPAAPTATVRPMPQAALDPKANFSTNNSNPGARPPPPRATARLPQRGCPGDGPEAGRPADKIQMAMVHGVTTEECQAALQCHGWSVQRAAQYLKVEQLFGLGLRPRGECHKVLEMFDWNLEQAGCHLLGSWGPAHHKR

In data set [1], `CN1CCN(c2ccc(Nc3ncc(Cl)c(NCC4CCOCC4)n3)cc2)CC1` [5-chloro-N^2-(4-(4-methylpiperazin-1-yl)phenyl)-N^4-((tetrahydro-2H-pyran-4-yl)methyl)pyrimidine-2,4-diamine] displayed an IC50 of 20.5 nM.
In turn, `CN1CCN(Cc2ccc(Nc3ncc(Cl)c(NCC4CCCO4)n3)cc2)CC1` (centres unmarked) [5-chloro-N^2-(4-((4-methylpiperazin-1-yl)methyl)phenyl)-N^4-((tetrahydrofuran-2-yl)methyl)pyrimidine-2,4-diamine] displayed an IC50 in data set [2] of 145 nM.
In data set [1], `Cc1cc(Nc2ncc(Cl)c(NC[C@H]3CCCO3)n2)c(F)cc1C1CCN(C)CC1` [(R)-5-chloro-N^2-(2-fluoro-5-methyl-4-(1-methylpiperidin-4-yl)phenyl)-N^4-((tetrahydrofuran-2-yl)methyl)pyrimidine-2,4-diamine] registered an IC50 of 85.3 nM.
In turn, `CN1CCC(c2cc(F)c(Nc3ncc(Cl)c(NC[C@H]4CCCO4)n3)cc2F)CC1` [(R)-5-chloro-N^2-(2,5-difluoro-4-(1-methylpiperidin-4-yl)phenyl)-N^4-((tetrahydrofuran-2-yl)methyl)pyrimidine-2,4-diamine] showed an IC50 in data set [1] of 44.7 nM.
Consider `COc1cc(N2CCN(C(C)=O)CC2)ccc1Nc1ncc(Cl)c(NCC2CCOCC2)n1` [1-(4-(4-((5-chloro-4-(((tetrahydro-2H-pyran-4-yl)methyl)amino)pyrimidin-2-yl)amino)-3-methoxyphenyl)piperazin-1-yl)ethan-1-one], for which 17.3 nM corresponded to half-maximal inhibition in data set [2] (IC50).
Consider `COc1cc(N2CCN(C)CC2)ccc1Nc1ncc(Cl)c(NCc2ccc(F)cc2)n1` [5-chloro-N^4-(4-fluorobenzyl)-N^2-(2-methoxy-4-(4-methylpiperazin-1-yl)phenyl)pyrimidine-2,4-diamine], for which the inhibition at 0.1 µM in data set [3] is 91.2%. The compound further had an IC50 in [1] of 43.9 nM.
Turning to `CN1CCN(c2ccc(Nc3ncc(Cl)c(NCc4ccc(F)cc4)n3)cc2)CC1` [5-chloro-N^4-(4-fluorobenzyl)-N^2-(4-(4-methylpiperazin-1-yl)phenyl)pyrimidine-2,4-diamine], the inhibition at 0.1 µM in [3] stood at 94%. For the same compound, 35.6 nM corresponded to half-maximal inhibition in data set [1] (IC50).
Take `CN1CCC(c2ccc(Nc3ncc(Cl)c(NCC4CCOCC4)n3)cc2)CC1` [5-chloro-N^2-(4-(1-methylpiperidin-4-yl)phenyl)-N^4-((tetrahydro-2H-pyran-4-yl)methyl)pyrimidine-2,4-diamine]: in [1], 39.5 nM corresponded to half-maximal inhibition (IC50).
As to `COc1cc(N2CCN(C)CC2)ccc1Nc1ncc(Cl)c(NCc2ccccc2)n1` [N^4-benzyl-5-chloro-N^2-(2-methoxy-4-(4-methylpiperazin-1-yl)phenyl)pyrimidine-2,4-diamine], in [3], the inhibition at 0.1 µM was found to be 98.2%. Further, 48.2 nM corresponded to half-maximal inhibition in data set [1] (IC50).
In turn, `COCCOCc1cc(Nc2ncc(Cl)c(NC[C@H]3CCCO3)n2)ccc1N1CCN(C)CC1` [(R)-5-chloro-N^2-(3-((2-methoxyethoxy)methyl)-4-(4-methylpiperazin-1-yl)phenyl)-N^4-((tetrahydrofuran-2-yl)methyl)pyrimidine-2,4-diamine] showed an IC50 in data set [2] of 198 nM.
Turning to `COc1ccc(CNc2nc(Nc3ccc(N4CCN(C)CC4)cc3OC)ncc2Cl)cc1` [5-chloro-N^2-(2-methoxy-4-(4-methylpiperazin-1-yl)phenyl)-N^4-(4-methoxybenzyl)pyrimidine-2,4-diamine], the inhibition at 0.1 µM in data set [3] came to 70.3%. In addition, the IC50 in [1] is 82.9 nM.
Consider `COc1cc(N2CCN(C)CC2)ccc1Nc1ncc2c(n1)N(C)c1ccccc1C(=O)N2` [Compound 3], for which, in data set [4], the “A549 lung cancer cell growth” value is recorded as “inhibits”. For the same compound, in data set [5], the “EGF induced ACK1 autophosphorylation (Tyr284)” value is given as “abolishes”.
`CN1CCC(c2ccc(Nc3ncc(Cl)c(NCC4CCOCC4)n3)cc2F)CC1` [5-chloro-N^2-(3-fluoro-4-(1-methylpiperidin-4-yl)phenyl)-N^4-((tetrahydro-2H-pyran-4-yl)methyl)pyrimidine-2,4-diamine] yielded an IC50 in data set [1] (unit inferred) of 35.9 nM.
On to `COc1cc(N2CCN(C)CC2)ccc1Nc1ncc(Cl)c(NCc2ccc(C)cc2)n1` [5-chloro-N^2-(2-methoxy-4-(4-methylpiperazin-1-yl)phenyl)-N^4-(4-methylbenzyl)pyrimidine-2,4-diamine], for which, in data set [3], the inhibition at 0.1 µM was 77.6%. Further, in data set [1], the concentration for half-maximal inhibition (IC50) came out at 50.8 nM.
In data set [2], `COc1c(Nc2ncc(Cl)c(NCC3CCOCC3)n2)ccc(N2CCN(C)CC2)c1F` [5-chloro-N^2-(3-fluoro-2-methoxy-4-(4-methylpiperazin-1-yl)phenyl)-N^4-((tetrahydro-2H-pyran-4-yl)methyl)pyrimidine-2,4-diamine] gave an IC50 of 87.9 nM.
Still for that read-out and setting: then `CN1CCN(c2ccc(Nc3ncc(Cl)c(NC[C@H]4CCCO4)n3)cc2CO)CC1`, with 51 nM; and `CN1CCN(c2ccc(Nc3ncc(Cl)c(NC[C@H]4CCCO4)n3)cc2C#N)CC1`, with 112 nM.
In the case of `COc1cc(N2CCN(C)CC2)ccc1Nc1ncc(Cl)c(NCC2CCOCC2)n1` [5-chloro-N^2-(2-methoxy-4-(4-methylpiperazin-1-yl)phenyl)-N^4-((tetrahydro-2H-pyran-4-yl)methyl)pyrimidine-2,4-diamine], 14.9 nM corresponded to half-maximal inhibition in [1] (IC50).
In data set [2], `CC(=O)N1CCN(c2ccc(Nc3ncc(Cl)c(NCC4CCOCC4)n3)cc2OC(C)C)CC1` [1-(4-(4-((5-chloro-4-(((tetrahydro-2H-pyran-4-yl)methyl)amino)pyrimidin-2-yl)amino)-2-isopropoxyphenyl)piperazin-1-yl)ethan-1-one] had an IC50 of 9.87 nM.
Same read-out and setting: then `CC(=O)N1CCN(c2ccc(Nc3ncc(Cl)c(NCC4CCOCC4)n3)cc2)CC1` [1-(4-(4-((5-chloro-4-(((tetrahydro-2H-pyran-4-yl)methyl)amino)pyrimidin-2-yl)amino)phenyl)piperazin-1-yl)ethan-1-one], with 26.6 nM.
Regarding `COc1cc(N2CCN(C)CC2)ccc1Nc1ncc(Cl)c(NCc2ccc(Cl)cc2Cl)n1` [5-chloro-N^4-(2,4-dichlorobenzyl)-N^2-(2-methoxy-4-(4-methylpiperazin-1-yl)phenyl)pyrimidine-2,4-diamine], in data set [3], the inhibition at 0.1 µM was 78.1%. Further, the midpoint of inhibition in data set [1], the IC50, lay at 70.1 nM.
Turning to `CC(C)Oc1cc(Nc2ncc(Cl)c(NC[C@H]3CCCO3)n2)ccc1C1CCN(C)CC1` [(R)-5-chloro-N^2-(3-isopropoxy-4-(1-methylpiperidin-4-yl)phenyl)-N^4-((tetrahydrofuran-2-yl)methyl)pyrimidine-2,4-diamine], in data set [2], half-maximal inhibition (IC50) was put at 62 nM.
On to `COc1cc(N2CCN(C)CC2)ccc1Nc1ncc(Cl)c(NCc2ccc(Cl)cc2)n1` [5-chloro-N^4-(4-chlorobenzyl)-N^2-(2-methoxy-4-(4-methylpiperazin-1-yl)phenyl)pyrimidine-2,4-diamine], for which the inhibition at 0.1 µM in data set [3] is 67.9%.
As for `c1ccc(-c2oc3ncnc(NC[C@@H]4CCCO4)c3c2-c2ccccc2)cc1` [Compound 1b], in data set [6], the “ACK1 dependent AKT Tyr176 phosphorylation” value is given as “inhibits”. Moreover, the “AR Tyr267 phosphorylation” value in [7] is “inhibits”. The xenograft tumor growth result in data set [8] is recorded as “inhibits”.
For `COc1cc(Oc2ccccc2)ccc1-c1nc(C2CC(C)(O)C2)n2ccnc(N)c12` (centres unmarked) [Compound 4], in [9], the IC50 is 35 nM. For the same compound, the oral bioavailability entry in [10] was “orally bioavailable”.
Consider `CN1CCN(c2cccc(Nc3ncc(Cl)c(NC[C@H]4CCCO4)n3)c2)CC1` [(R)-5-chloro-N^2-(3-(4-methylpiperazin-1-yl)phenyl)-N^4-((tetrahydrofuran-2-yl)methyl)pyrimidine-2,4-diamine], for which the IC50 in data set [2] turned out to be 88 nM.
On the same count and under the same terms, then `COc1cc(Nc2ncc(Cl)c(NC[C@H]3CCCO3)n2)ccc1C1CCN(C)CC1` [(R)-5-chloro-N^2-(3-methoxy-4-(1-methylpiperidin-4-yl)phenyl)-N^4-((tetrahydrofuran-2-yl)methyl)pyrimidine-2,4-diamine], with 87.2 nM; and `CC(C)OCc1cc(Nc2ncc(Cl)c(NC[C@H]3CCCO3)n2)ccc1N1CCN(C)CC1` [(R)-5-chloro-N^2-(3-(isopropoxymethyl)-4-(4-methylpiperazin-1-yl)phenyl)-N^4-((tetrahydrofuran-2-yl)methyl)pyrimidine-2,4-diamine], with 167 nM.
In data set [1], `CN1CCN(c2ccc(Nc3ncc(Cl)c(NCC4CCOCC4)n3)cc2F)CC1` [5-chloro-N^2-(3-fluoro-4-(4-methylpiperazin-1-yl)phenyl)-N^4-((tetrahydro-2H-pyran-4-yl)methyl)pyrimidine-2,4-diamine] yielded an IC50 of 19.8 nM.
In data set [1], `COc1cc(C2CCN(C)CC2)ccc1Nc1ncc(Cl)c(NCC2CCOCC2)n1` [5-chloro-N^2-(2-methoxy-4-(1-methylpiperidin-4-yl)phenyl)-N^4-((tetrahydro-2H-pyran-4-yl)methyl)pyrimidine-2,4-diamine] returned an IC50 of 20.2 nM.
As to `COc1cc(N2CCN(C)CC2)c(F)cc1Nc1ncc(Cl)c(NCC2CCOCC2)n1` [5-chloro-N^2-(5-fluoro-2-methoxy-4-(4-methylpiperazin-1-yl)phenyl)-N4-((tetrahydro-2H-pyran-4-yl)methyl)pyrimidine-2,4-diamine], 11.9 nM corresponded to half-maximal inhibition in data set [2] (IC50).

By IC50 is commonly meant the concentration that gives 50% inhibition. The inhibition is the percentage by which the read-out fell short of the control.
